Structures are written as SMILES. Calls of active or inactive are those of the source. No rule for the calls is given here. A value given as a limit tells only on which side of the number the result lay.

Drawing on PubChem BioAssay AID540252 (Sanford-Burnham Center for Chemical Genomics, 2011), this text covers IC50 for 89 compounds.

In the experiment the target is glucose-6-phosphate dehydrogenase-6-phosphogluconolactonase (Plasmodium falciparum 3D7). Nature of the experiment: inhibition of P. falciparum G6PD activity – biochemical, end-point NADPH detection, orthogonal assay, dose response (AID 540252). Conditions: purified PfG6PD enzyme, NADPH direct detection.
As for `CCn1c(SCc2nc3scc(-c4ccccc4)c3c(=O)[nH]2)nnc1-c1cccs1`, the IC50 (as a rule, the concentration at which inhibition is half-maximal) was > 80 µM (inactive).
Under `Cc1ccc(NC2=C(NC(=O)c3ccccc3)C(=O)c3ccccc3C2=O)cc1Cl` stands > 80 µM (inactive).
Next, `O=c1c2ccccc2sn1-c1ccc(Cl)cc1`: 17.2 µM.
Next, `c1ccc(OCc2nnc3n2N=C(c2ccccc2)CS3)cc1`: > 80 µM (inactive); `CCc1nnc(NC(=O)c2ccc(Cl)nc2)s1`: > 80 µM (inactive).
As to `CCOC(=O)c1c(C)n(-c2ccc(C)cc2)c2c(C(C(C)=O)C(=O)O)c(Br)c(O)c(O)c12` (centres undefined), the IC50 is > 80 µM (inactive).
Under `N#Cc1ccc2sn(-c3ccccc3)c(=O)c2c1` stands 15.2 µM; under `CCc1ccccc1N1CSC2=C(C#N)C(c3ccccc3F)CC(=O)N2C1` (centres undefined), > 80 µM (inactive).
Next, `NC1CCc2cc(O)c(O)cc2C1` (centres undefined): 27.5 µM.
Next, `CCOc1ccccc1CNc1ccc(O)cc1`: > 80 µM (inactive); `C=CCc1c(C)[nH]c(=S)c(C#N)c1C`: > 80 µM (inactive).
Turning to `CN1/C(=C\C(=O)c2cccs2)Sc2ccccc21`, the IC50 is > 80 µM (inactive).
With `COC(=O)C1=C(C(=O)OC)SC2(S1)C(C(=O)OC)=C(C(=O)OC)Sc1c2ssc1=O`, the IC50 is > 80 µM (inactive).
Next, `O=c1c2ccccc2sn1-c1ccc(Cl)cc1Cl`: 16.9 µM; `COC1(OC)C=CC(=O)C=C1NC(=O)c1ccccc1OC(C)=O`: > 80 µM (inactive); `O=C(CCl)NCCN1C(=O)S/C(=C\c2cccnc2)C1=O`: > 80 µM (inactive).
Under `COc1cc(NC(C)CCc2ccccc2)cc(OC)c1OC` (centres undefined) stands > 80 µM (inactive).
Under `Cc1cc(C)c2c(=N)c3ccccc3n(CCCCCCCCn3c4ccccc4c(=N)c4c(C)cc(C)nc43)c2n1` stands > 80 µM (inactive).
In the case of `Cc1c(/C=C/C(=O)c2ccc(Cl)s2)cnn1C`, the IC50 was > 80 µM (inactive).
Under `O=C1C(=Cc2cccc(O)c2O)SC(=S)N1CCCN1CCOCC1` stands 44.3 µM; under `O=c1c2ccccc2sn1-c1cc(S(=O)(=O)N2CCOCC2)ccc1N1CCCC1`, 15.1 µM; under `COc1cc(C(=O)O/N=C2/C=C(C)C(=O)C=C2C)cc(OC)c1OC`, > 80 µM (inactive).
Under `CCC(=O)OCOc1ccc(/C=C2/CCC(CN(C)C)C2=O)cc1` (centres undefined) stands > 80 µM (inactive).
Next, `COc1cccc(-c2c(C(=O)N/N=C/c3ccc(C)o3)nnn2-c2nonc2N)c1`: > 80 µM (inactive); `NC(=O)N/N=C/c1ccc(-n2nncc2-c2ccc(Cl)cc2)cc1`: > 80 µM (inactive).
In the case of `COc1cc(C(=O)O/N=C2\C=CC(=O)C=C2C)cc(OC)c1OC`, the IC50 is > 80 µM (inactive).
Turning to `COc1ccc(N2CSC3=C(C#N)C(c4cc(OC)c(OC)cc4OC)CC(=O)N3C2)c(OC)c1` (centres undefined), the IC50 was > 80 µM (inactive).
Under `Cn1c(=O)[nH]c(=O)c2c1nc([N+](=O)[O-])n2Cc1ccccc1` stands > 80 µM (inactive); under `Cc1ccc(-c2c(C(=O)N/N=C/c3ccsc3)nnn2-c2nonc2N)cc1`, > 80 µM (inactive); under `CC(=O)Nc1ccc2c(c1)Cc1cc(N3C(=O)C=CC3=O)ccc1-2`, 23.7 µM.
Under `Cc1noc(C(=O)Nc2sc3c(c2C#N)CCC3)c1Cl` stands > 80 µM (inactive); under `Cc1ccc(-n2sc3cc(F)ccc3c2=O)c(C)c1`, 12.2 µM; under `CC1=C(O)C(=O)C=C2C1=CC=C1C2(C)CCC2(C)C3CC(C)(C(=O)O)CCC3(C)CCC12C` (centres undefined), > 80 µM (inactive).
With `Cc1cc(C)c2c(=O)n(CC(=O)N3CCC(N4CCCCC4)CC3)sc2n1`, the IC50 is > 80 µM (inactive).
Under `Cc1cnc(C=NNC(N)=S)c2cccc(N)c12` stands > 80 µM (inactive); under `Cc1c(N=C2C=C(Br)C(=O)C(Br)=C2)c(=O)n(-c2ccccc2)n1C`, > 80 µM (inactive).
Next, `Cc1ccsc1/C=N/NC(=O)c1cccc(S(=O)(=O)Nc2ccccc2Cl)c1`: > 80 µM (inactive).
Next, `[O-]/[N+](=C\c1ccco1)c1ccc(Cl)cc1`: > 80 µM (inactive); `CN(C)c1ccc(/C=C/c2ccc3c4ccccc4ccc3[n+]2-c2ccccc2)cc1`: > 80 µM (inactive); `O=C(Cn1sc2ccccc2c1=O)Nc1ccc(Br)cc1`: 22.4 µM.
On to `CN(C)C=Nc1ccc2nc3c(cc2c1)[nH]c1ccccc13`, for which the IC50 was > 80 µM (inactive).
Under `O=C(Nc1nnc(S(=O)(=O)N2CCCCCC2)s1)c1cccc(Br)c1` stands > 80 µM (inactive); under `Cc1no[n+]([O-])c1COc1cccc(/C=N/Nc2nncn2N)c1`, > 80 µM (inactive); under `Clc1ccc(N=c2ssnc2Cl)nc1`, > 80 µM (inactive).
Regarding `COc1cc(/C=N/Nc2nncn2N)ccc1OCc1c(C)no[n+]1[O-]`, the IC50 is > 80 µM (inactive).
On to `COC(=O)c1ccccc1NC1=C/C(=N\S(=O)(=O)c2cccs2)c2ccccc2C1=O`, for which the IC50 was > 80 µM (inactive).
Under `Cc1ccc(-c2csc(NC(=O)c3ccc(Br)cc3)c2C(=O)O)cc1` stands > 80 µM (inactive); under `COc1cc(N)c2ncccc2c1SC`, > 80 µM (inactive); under `CC(C)c1nnc(NC(=O)c2cccc(-n3cnnn3)c2)s1`, > 80 µM (inactive).
Under `NS(=O)(=O)c1ccc(-c2ccc(C=C3C(=O)NC(=O)NC3=O)o2)cc1` stands > 80 µM (inactive); under `O=C(CCSCCC(=O)NN=Cc1ccccc1)NN=Cc1ccccc1`, > 80 µM (inactive); under `Cc1ccc(S(=O)c2ccc([N+](=O)[O-])c3nonc23)cc1` (centres undefined), 60 µM.
Next, `CCN(CC)C(=O)c1c(C)[nH]c(=S)c(C#N)c1-c1ccco1`: > 80 µM (inactive); `O=S(=O)(NCc1csc(-c2ccccc2)n1)c1ccc(Cl)s1`: > 80 µM (inactive).
Consider `[O-][N+](=Cc1ccccc1)c1ccc(Cl)cc1`, for which the IC50 was > 80 µM (inactive).
With `O=C(CSc1nc2cc(Cl)ccc2s1)c1ccco1`, the IC50 was > 80 µM (inactive).
Next, `CCN(CC)CCNC(=O)CCCCn1c(=S)[nH]c2c([nH]c3ccc(OC)cc32)c1=O`: > 80 µM (inactive); `COc1ccc(N2CSC3=C(C#N)C(c4ccc(OC)c(OC)c4)CC(=O)N3C2)c(OC)c1` (centres undefined): > 80 µM (inactive); `CCN=c1scc(C)n1/N=C/c1ccc(O)c(O)c1O`: > 80 µM (inactive).
Turning to `CCC(C)c1ccccc1OCCn1ccnc1` (centres undefined), the IC50 is > 80 µM (inactive).
Under `CCN(CC)CCn1c2ccccc2c(=O)c2c(O)ccc(O)c21` stands > 80 µM (inactive); under `Cc1c(Cl)c([N+](=O)[O-])nn1Cc1ccc(C(=O)N/N=C\c2cccc(Br)c2)o1`, > 80 µM (inactive).
For the compound `Nn1c(CSc2nc3ccccc3o2)nnc1CSc1nc2ccccc2o1`, the IC50 was > 80 µM (inactive).
Under `Cc1ccc(NC(=O)c2ccc(Cl)c(N3C(=O)C=CC3=O)c2)cc1` stands 33.4 µM.
Under `CC1CN(c2ccccc2)NC1=O` (centres undefined) stands > 80 µM (inactive).
Next, `Cc1ccc(NS(=O)(=O)c2ccccc2Cl)c2c1CC(C)(C)O2`: > 80 µM (inactive).
In the case of `Cc1ccc(S(=O)(=O)/N=C2/C=C(C3C(=O)CC(C)(C)CC3=O)C(=O)c3ccccc32)cc1`, the IC50 is > 80 µM (inactive).
As to `Cc1ccc2nc(-c3ccc(NC(=S)NC4CC(C)(C)NC(C)(C)C4)cc3)sc2c1`, the IC50 was > 80 µM (inactive).
Next, `CN(C)c1cccc2c1c(NC(=O)c1ccc(F)cc1)nn2C`: > 80 µM (inactive); `CC1=C(C)CS(=O)N(S(=O)(=O)c2ccc(Cl)cc2)C1` (centres undefined): > 80 µM (inactive); `CC(C)c1nnc(NC(=O)c2cc3ccccc3o2)s1`: > 80 µM (inactive).
In the case of `CCOC(=O)c1c(C2COc3ccccc3O2)csc1NC(=O)c1ccco1` (centres undefined), the IC50 is > 80 µM (inactive).
Under `COc1ccc2nc3cc(Cl)ccc3c(Nc3ccc(O)c(CN4CCN(C)CC4)c3)c2c1` stands > 80 µM (inactive).
Consider `O=c1c2cc(C(F)(F)F)ccc2sn1-c1ccccc1`, for which the IC50 was 26.2 µM.
Next, `O=C(CCC(=O)OCC(=O)c1ccc([N+](=O)[O-])cc1)Nc1ccccc1Cl`: 53 µM.
Next, `CCOc1ccccc1NC(=O)CCCc1nc2ccccc2c(=O)[nH]1`: > 80 µM (inactive).
Next, `C=C1C(=O)O[C@@H]2C[C@@H](C)[C@@H]3C=CC(=O)[C@@]3(C)[C@@H](OC(=O)CC(=O)O[C@H]3[C@@H]4C(=C)C(=O)O[C@@H]4C[C@@H](C)[C@@H]4C=CC(=O)[C@]43C)[C@H]12`: > 80 µM (inactive).
Take `Cc1ccc(Cl)cc1NC1=C/C(=N\S(=O)(=O)c2cccs2)c2ccccc2C1=O`: the IC50 is > 80 µM (inactive).
Under `Oc1cc(CNCc2ccccc2)c(O)cc1CNCc1ccccc1` stands > 80 µM (inactive); under `O=c1c2cc([N+](=O)[O-])ccc2sn1-c1ccccc1`, 13.9 µM.
Next, `CCn1c(=O)n(CC)c2cc(N3CCCC3)c(NC(=O)c3cccc(C)c3)cc21`: > 80 µM (inactive).
Regarding `O=[N+]([O-])c1ccc(N/N=C/c2ccc(O)c(O)c2O)c(S(=O)(=O)N2CCOCC2)c1`, the IC50 is 47.5 µM.
As for `Cc1nnc(SCC(=O)c2cc(C)n(-c3ccc4c(c3)OCO4)c2C)s1`, the IC50 was > 80 µM (inactive).
Regarding `COc1cc(NCCCn2cnc(C(=O)Nc3ccc(C)c(C)c3)n2)cc(OC)c1OC`, the IC50 is > 80 µM (inactive).
Regarding `O=c1[nH]c(NCCO)c(N=Cc2ccccc2)c(=O)[nH]1`, the IC50 was > 80 µM (inactive).
Under `COc1cc(N=c2ssnc2Cl)c(OC)cc1Cl` stands 29.2 µM; under `CCC(=O)OCCNc1cc(Sc2nc3ccccc3s2)c2nonc2c1[N+](=O)[O-]`, > 80 µM (inactive); under `O=C1C=CC(=O)N1CCCCCCCCCCN1C(=O)C=CC1=O`, > 80 µM (inactive).
`Cc1cc(C)c2c(=O)n(CC(=O)Nc3ccc(Cl)cc3)sc2n1`: the IC50 was > 80 µM (inactive).
